The subject of assay [1] is Human gastric cancer cell line MKN-45. Kind of assay: Human gastric cancer cell line MKN-45 growth inhibitory test. It counts as cell-based. Conditions: MKN-45, 72 h, culture for 3 days; for inhibition at 1 µM: 1 μM test substance, read-out: inhibitory rate (%) at 1 μM; for IC50: read-out: IC50 value. The method, boiled down:
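MKN-45 cells plated at 3000/well in RPMI1640 with 0.3% FBS, then exposed to test substance for 3 days at 37 °C. Viability read by CCK-8 absorbance at 450 nm; IC50 from variable-slope sigmoidal fit, with DMSO as 100% growth and 10 µM reference c-Met inhibitor as 0% growth.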

The target of assay [2] is T1, FLT3 intracellular domain protein (Homo sapiens, UniProt P36888).
T1 construct: 7.5 ng/ml of FLT3 intracellular domain protein (Millipore); purchased Millipore
T1 sequence (P36888 564-993 limits assumed): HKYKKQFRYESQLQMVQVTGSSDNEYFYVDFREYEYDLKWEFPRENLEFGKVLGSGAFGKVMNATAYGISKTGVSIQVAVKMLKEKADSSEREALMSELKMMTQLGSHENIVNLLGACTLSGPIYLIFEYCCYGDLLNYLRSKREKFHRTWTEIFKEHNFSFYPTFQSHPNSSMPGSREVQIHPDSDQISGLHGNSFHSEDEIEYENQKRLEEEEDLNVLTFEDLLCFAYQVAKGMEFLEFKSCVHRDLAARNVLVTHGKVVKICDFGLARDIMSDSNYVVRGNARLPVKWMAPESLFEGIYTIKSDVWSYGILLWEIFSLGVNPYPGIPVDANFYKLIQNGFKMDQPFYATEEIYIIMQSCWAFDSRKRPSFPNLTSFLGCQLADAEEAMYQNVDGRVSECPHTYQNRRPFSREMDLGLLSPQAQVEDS
Kind of assay: Fms Like Tyrosine Kinase 3 (FLT3) kinase inhibitory activity (AlphaScreen). It counts as biochemical. Conditions: for inhibition at 1 µM: 1 μM test compound, read-out: inhibitory rate (%) at 1 μM. The procedure, abridged: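 FLT3 intracellular domain (7.5 ng/ml) and biotin-poly-Glu:Tyr (250 ng/mL), each as added, were preincubated 5 min with compound in Tris pH 7.5 with Mg²⁺, Mn²⁺, DTT and Tween-20. ATP was added (5 μM) for 10 min at 25 °C, then EDTA stop with streptavidin donor/anti-phosphotyrosine acceptor beads for 16 h. % inhibition was calculated against the no-compound control and the no-compound/no-ATP blank.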

In assay [3] the target is T2, c-Met intracellular domain protein (Homo sapiens, UniProt P08581).
T2 construct: 2.5 ng/ml of c-Met intracellular domain protein (Millipore); purchased Millipore
T2 sequence (P08581 956-1390 limits assumed): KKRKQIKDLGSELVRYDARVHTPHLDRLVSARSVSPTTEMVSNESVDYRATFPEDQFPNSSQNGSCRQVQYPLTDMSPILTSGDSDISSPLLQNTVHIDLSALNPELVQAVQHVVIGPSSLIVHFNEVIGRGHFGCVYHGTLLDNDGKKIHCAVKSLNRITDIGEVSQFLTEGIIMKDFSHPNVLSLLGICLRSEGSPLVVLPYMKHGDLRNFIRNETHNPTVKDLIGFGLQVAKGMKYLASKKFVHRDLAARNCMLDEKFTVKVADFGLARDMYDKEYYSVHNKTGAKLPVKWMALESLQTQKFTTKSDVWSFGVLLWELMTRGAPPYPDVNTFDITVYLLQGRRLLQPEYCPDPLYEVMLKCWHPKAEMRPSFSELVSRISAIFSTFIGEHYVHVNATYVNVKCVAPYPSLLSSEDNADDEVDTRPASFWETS
Put plainly: Hepatocyte growth factor receptor (c-Met) kinase inhibitory activity (AlphaScreen). Conditions: for inhibition at 1 µM: 1 μM test compound, read-out: inhibitory rate (%) at 1 μM. It counts as biochemical. The procedure:
A test compound dissolved in dimethyl sulfoxide (DMSO) was diluted with a buffer (50 mM Tris-HCl (pH 7.5), 5 mM MgCl2, 5 mM MnCl2, 2 mM dithiothreitol, 0.01% Tween-20). To this compound solution (5 μL) was added a buffer (10 μL) containing 2.5 ng/ml of c-Met intracellular domain protein (Millipore) and 250 ng/mL of biotin labeled polypeptide biotinyl-poly-Glu:Tyr (4:1) (CIS bio International). […] The reaction solution was allowed to stand at 25° C. for 16 hrs, and the wells were counted using a plate reader (Fusion™ (PerkinElmer)). The kinase inhibitory rate (%) of the test compound was calculated by the following formula: Inhibitory rate (%)=(1−(count of test compound−blank)÷(control−blank))×100
The count of the solution reacted without addition of the compound was used as a “control”, and the count of the solution without the compound and ATP was used as a “blank”.

The subject of assay [4] is Human umbilical vein-derived vascular endothelial cells (HUVEC). Kind of assay: Vascular endothelial cell proliferation inhibitory test (VEGF-stimulated HUVEC). It counts as cell-based. Conditions: 120 h, 5 days of culture with VEGF. The method, boiled down: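 HUVEC (3000 cells/well) in medium with 3% FBS, cultured overnight, then given test substance plus VEGF (120 ng/mL in the added medium). After 5 days at 37 °C, Cell Counting Kit-8 was applied for 2-3 h and A450 read. IC50 relative to no-compound wells, by logistic nonlinear least-squares fit.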

As to `Cc1ccc(C(=O)Nc2ccc(Oc3ccc4nc(NC(=O)C5CC5)cn4c3)cc2F)[n+]([O-])c1-c1ccc(F)cc1` [Example 84, N-[4-({2-[(cyclopropylcarbonyl)amino]imidazo[1,2-a]pyridin-6-yl}oxy)-2-fluorophenyl]-6-(4-fluorophenyl)-5-methylpyridine-2-carboxamide 1-oxide], the inhibition at 1 µM in assay [1] and in assay [3] was not below 80% in each case. Also, the IC50 in assay [1] was not above 1 µM; in assay [2], not above 1 µM; in assay [3], not above 1 µM; in assay [4] it was not above 2 µM.
For the compound `Cc1ccc(C(=O)Nc2ccc(Oc3ccc4nc(NC(=O)C5CC5)cn4c3)c(F)c2)c(=O)n1-c1ccc(F)c(F)c1` [Example 45, N-[4-({2-[(cyclopropylcarbonyl)amino]imidazo[1,2-a]pyridin-6-yl}oxy)-3-fluorophenyl]-1-(3,4-difluorophenyl)-6-methyl-2-oxo-1,2-dihydropyridine-3-carboxamide], the inhibition at 1 µM in assay [1] and in assay [3] was not below 80% each time. In addition, the 50% inhibitory concentration (IC50) in assay [1] is not above 1 µM; in assay [2] it was not above 1 µM; in assay [3], not above 1 µM; in assay [4], not above 2 µM.
On to `Cc1ccc(C(=O)Nc2ccc(Oc3ccc4nc(NC(=O)C5CC5)cn4c3)c(F)c2)[n+]([O-])c1-c1cccc(F)c1` [Example 93, N-[4-({2-[(cyclopropylcarbonyl)amino]imidazo[1,2-a]pyridin-6-yl}oxy)-3-fluorophenyl]-6-(3-fluorophenyl)-5-methylpyridine-2-carboxamide 1-oxide], for which the inhibition at 1 µM in assay [1] and in assay [3] was not below 80% in each case. The IC50 in assay [1] is not above 1 µM; in assay [2], not above 1 µM; in assay [3], not above 1 µM; in assay [4] it was not above 2 µM.
Take `O=C(Nc1ccc(Oc2ccc3nc(NC(=O)C4CC4)cn3c2)c(F)c1)c1cccn(-c2ccc(F)cc2)c1=O` [Example 10, N-[4-({2-[(cyclopropylcarbonyl)amino]imidazo[1,2-a]pyridin-6-yl}oxy)-3-fluorophenyl]-1-(4-fluorophenyl)-2-oxo-1,2-dihydropyridine-3-carboxamide]: the results for the inhibition at 1 µM in assay [1], in assay [2] and in assay [3] were not below 80%, not below 50% and not below 80%, respectively. Besides, the half-maximal inhibitory concentration (IC50) in assay [1] was not above 1 µM; in assay [2], not above 1 µM; in assay [3] it was not above 1 µM; in assay [4] it was not above 2 µM.
For `Cc1ccc(C(=O)Nc2ccc(Oc3ccc4nc(NC(=O)C5CC5)cn4c3)c(Cl)c2)c(=O)n1-c1ccc(F)cc1` [Example 57, N-[3-chloro-4-({2-[(cyclopropylcarbonyl)amino]imidazo[1,2-a]pyridin-6-yl}oxy)phenyl]-1-(4-fluorophenyl)-6-methyl-2-oxo-1,2-dihydropyridine-3-carboxamide], the inhibition at 1 µM in assay [1] and in assay [3] was not below 80% throughout. The IC50 in assay [1] was not above 1 µM; in assay [2] it was not above 1 µM; in assay [3], not above 1 µM; in assay [4] it was not above 2 µM.
Turning to `Cc1ccc(C(=O)Nc2ccc(Oc3ccc4nc(NC(=O)C5CC5)cn4c3)cc2)[n+]([O-])c1-c1ccc(F)cc1` [Example 72, N-[4-({2-[(cyclopropylcarbonyl)amino]imidazo[1,2-a]pyridin-6-yl}oxy)phenyl]-6-(4-fluorophenyl)-5-methylpyridine-2-carboxamide 1-oxide], the inhibition at 1 µM in assay [1] and in assay [3] was not below 80% in each case. The 50% inhibitory concentration (IC50) is not above 1 µM in assay [1], not above 1 µM in assay [2], not above 1 µM in assay [3] and not above 2 µM in assay [4].
With `O=C(Nc1nc2ccc(Oc3ccc(NC(=O)C4(C(=O)Nc5ccccc5)CC4)cc3F)cc2s1)C1CC1` [Example 18, N-[4-({2-[(cyclopropylcarbonyl)amino]-1,3-benzothiazol-6-yl}oxy)-3-fluorophenyl]-N′-phenylcyclopropane-1,1-dicarboxamide], the figures for the inhibition at 1 µM in assay [1], in assay [2] and in assay [3] were not below 80%, not below 50% and not below 80%, respectively. Also, the IC50 in assay [1] was not above 1 µM; in assay [2] it was not above 1 µM; in assay [3] it was not above 1 µM; in assay [4] it was not above 2 µM.
As to `Cc1ccc(C(=O)Nc2ccc(Oc3ccc4nc(NC(=O)C5CC5)cn4c3)c(F)c2)c(=O)n1-c1cccc(F)c1` [Example 75, N-[4-({2-[(cyclopropylcarbonyl)amino]imidazo[1,2-a]pyridin-6-yl}oxy)-3-fluorophenyl]-1-(3-fluorophenyl)-6-methyl-2-oxo-1,2-dihydropyridine-3-carboxamide], the inhibition at 1 µM in assay [1] and in assay [3] was not below 80% throughout. In addition, the IC50 was not above 1 µM in assay [1], not above 1 µM in assay [2], not above 1 µM in assay [3] and not above 2 µM in assay [4].
`O=C(Nc1cn2cc(Oc3ccc(NC(=O)C4(C(=O)Nc5ccccc5)CC4)cc3F)ccc2n1)C1CC1` [Example 14, N-[4-({2-[(cyclopropylcarbonyl)amino]imidazo[1,2-a]pyridin-6-yl}oxy)-3-fluorophenyl]-N′-phenylcyclopropane-1,1-dicarboxamide]: the inhibition at 1 µM in assay [1] and in assay [3] was not below 80% each time. Moreover, the IC50 is not above 1 µM in assay [1], not above 1 µM in assay [2], not above 1 µM in assay [3] and not above 2 µM in assay [4].
For `Cc1c(C(=O)Nc2ccc(Oc3ccc4nc(NC(=O)C5CC5)cn4c3)c(F)c2)c(=O)n(-c2ccc(F)cc2)n1C` [Example 77, N-[4-({2-[(cyclopropylcarbonyl)amino]imidazo[1,2-a]pyridin-6-yl}oxy)-3-fluorophenyl]-2-(4-fluorophenyl)-1,5-dimethyl-3-oxo-2,3-dihydro-1H-pyrazole-4-carboxamide], the inhibition at 1 µM in assay [1] and in assay [3] was not below 80% each time. In addition, the half-inhibitory concentration (IC50) in assay [1] is not above 1 µM; in assay [2], not above 1 µM; in assay [3], not above 1 µM; in assay [4], not above 2 µM.
As for `Cc1cc(C)n(-c2ccc(F)cc2)c(=O)c1C(=O)Nc1ccc(Oc2ccc3nc(NC(=O)C4CC4)cn3c2)c(F)c1` [Example 82, N-[4-({2-[(cyclopropylcarbonyl)amino]imidazo[1,2-a]pyridin-6-yl}oxy)-3-fluorophenyl]-1-(4-fluorophenyl)-4,6-dimethyl-2-oxo-1,2-dihydropyridine-3-carboxamide], the inhibition at 1 µM in assay [1] and in assay [3] was not below 80% in each case. Further, the IC50 in assay [1] was not above 1 µM; in assay [2], not above 1 µM; in assay [3], not above 1 µM; in assay [4] it was not above 2 µM.
On to `CC1=C(c2ccc(F)cc2)C(=O)N(C(=O)Nc2ccc(Oc3ccc4nc(NC(=O)C5CC5)cn4c3)c(F)c2)CC1` [Example 81, N-[4-({2-[(cyclopropylcarbonyl)amino]imidazo[1,2-a]pyridin-6-yl}oxy)-3-fluorophenyl]-5-(4-fluorophenyl)-4-methyl-6-oxo-3,6-dihydropyridine-1(2H)-carboxamide], for which the inhibition at 1 µM in assay [1] and in assay [3] was not below 80% each time. For the same compound, the IC50 in assay [1] was not above 1 µM; in assay [2] it was not above 1 µM; in assay [3], not above 1 µM; in assay [4], not above 2 µM.

The values are drawn from patent US8445509B2, “Fused heterocyclic derivatives and use thereof” (Takeda Pharmaceutical Company Limited, priority 2008, dated 2013).
